Patent US7732609B2, “5-(arylsulfonyl)-pyrazolopiperidines” (Elan Pharmaceuticals, Inc., priority 2005, dated 2010)
pIC50: −log10 of the molar value.

Biological target: T1, gamma-secretase (Homo sapiens, UniProt P49768)
T1 construct: The assay used a partially purified extract of IMR-32 cell membranes as the gamma-secretase enzyme preparation; endogenous in cells; host or cells: IMR-32 cell membranes (partially purified extract)
Assay: Gamma-secretase APP enzyme assay (MBP-C125 Swe cleavage at Aβ40 site, sandwich ELISA)
Assay type: biochemical
Details: IMR-32 cell membrane extract as enzyme; MBP-C125swe substrate; 2 h at 37° C; read-out: γAPP
Description: The gamma-secretase APP enzyme assay was designed to measure the specific proteolytic cleavage of an APP substrate (MBP-C125 Swe fusion protein) at the Aβ40 site. The assay used a partially purified extract of IMR-32 cell membranes as the gamma-secretase enzyme preparation and a recombinant fusion protein containing the C-terminal 125 amino acids of the Swedish variant of the APP (MBP-C125swe) as the substrate. This assay involved two steps beginning with the enzymatic reaction generating a cleavage product that was captured with an immobilized antibody specific for the neo-epitope Aβ40 site. The captured cleavage product was then detected in a sandwich ELISA assay with a biotinylated reporter antibody that is specific to Aβ (17-28). Streptavidin-linked alkaline phosphatase was then added that would generate a fluorescent signal proportional to the amount of cleavage product. This assay was used to discover small molecule inhibitors of gamma-secretase.
Briefly, a 149 mg/ml solution of BIGCHAP detergent was made with water at 42° C. and then rotated for 30 minutes at the same temperature. This warmed solution of BigCHAPS(N,N-Bis(3-D-gluconamidopropyl)cholamide) detergent was used to dissolve Brain Extract Type-V (lipid containing a minimum of 40% phosphatidylethanolamine) from Sigma (St. Louis, Mo.) to a concentration of 8 mg/ml. This solution containing BigCHAPS and lipid at 8 mg/ml is then diluted to 0.53 mg/ml lipid with a pre-warmed solution of Hepes and sodium chloride. This final solution containing Hepes buffer, sodium chloride, BigCHAPS detergent and lipid is used to create working solutions of both gamma-secretase (25 Units) and the MBP-C125 substrate (0.05 mg/ml).
Gamma-secretase was then added to a 96-well micro-titre plate and then incubated with various concentrations of inhibitor for 30 minutes at 37° C. MBPC125 substrate was then added to initiate the reaction that would run for two hours at 37° C. The reaction was quenched with the addition of SDS to a final concentration of 0.1% and then 100 μl of the reaction mixture was transferred to a capture ELISA plate and incubated overnight at 4° C. Detection of the cleavage product was performed using a standard sandwich ELISA assay and quantified using a six point standard curve.

pIC50 | Compound
> 7.30 | O=S(=O)(c1ccc(Cl)cc1)N1Cc2c[nH]nc2CC1c1cncnc1 (single isomer, unassigned) [5-(4-chlorophenylsulfonyl)-6-(pyrimidin-5-yl)-4,5,6,7-tetrahydro-1H-pyrazolo[4,3-c]pyridine]
> 7.30 | O=S(=O)(c1ccc(Cl)cc1)N1CCc2n[nH]cc2C1c1nccs1 (centres unmarked) [2-(5-(4-chlorophenylsulfonyl)-4,5,6,7-tetrahydro-2H-pyrazolo[4,3-c]pyridin-4-yl)thiazole]
6.52 to 6.82 | O=S(=O)(c1ccc(Cl)cc1)N1Cc2c[nH]nc2CC1c1nccs1 (centres unmarked) [2-(5-(4-chlorophenylsulfonyl)-4,5,6,7-tetrahydro-2H-pyrazolo[4,3-c]pyridin-6-yl)thiazole]
6.52 to 6.82 | O=S(=O)(c1ccc(Cl)cc1)N1CCc2[nH]ncc2C1c1nc2ccccc2[nH]1 (centres unmarked) [4-(1H-Benzoimidazol-2-yl)-5-(4-chloro-benzenesulfonyl)-4,5,6,7-tetrahydro-1H-pyrazolo[4,3-c]pyridine]
> 7.30 | O=S(=O)(c1ccc(Cl)cc1)N1CCc2ncccc2C1c1ccc(Cl)cc1 (centres unmarked) [5-(4-chlorophenyl)-6-(4-chlorophenylsulfonyl)-5,6,7,8-tetrahydro-1,6-naphthyridine]
> 7.30 | CCC1c2cn[nH]c2CC(CO)N1S(=O)(=O)c1ccc(Cl)cc1 (centres unmarked) [5-(4-chlorophenylsulfonyl)-4-ethyl-4,5,6,7-tetrahydro-1H-pyrazolo[4,3-c]pyridin-6-yl)methanol]
> 7.30 | O=S(=O)(c1ccc(Cl)cc1)N1Cc2c[nH]nc2CC1c1cc(F)cc(F)c1 (centres unmarked) [5-(4-chlorophenylsulfonyl)-6-(3,5-difluorophenyl)-4,5,6,7-tetrahydro-1H-pyrazolo[4,3-c]pyridine]
> 7.30 | O=S(=O)(c1ccc(Cl)cc1)N1Cc2cn[nH]c2CC1c1cccc(F)c1 (centres unmarked) [5-(4-chlorophenylsulfonyl)-6-(3-fluorophenyl)-4,5,6,7-tetrahydro-1H-pyrazolo[4,3-c]pyridine]
> 7.30 | O=S(=O)(c1ccc(Cl)cc1)N1Cc2cn[nH]c2CC1c1ccc(F)cc1 (centres unmarked) [5-(4-chlorophenylsulfonyl)-6-(4-fluorophenyl)-4,5,6,7-tetrahydro-1H-pyrazolo[4,3-c]pyridine]
6.82 to 7.30 | O=S(=O)(c1ccc(Cl)cc1)N1Cc2cn[nH]c2CC1c1cccnc1 (centres unmarked) [5-(4-chlorophenylsulfonyl)-6-(pyridin-3-yl)-4,5,6,7-tetrahydro-1H-pyrazolo[4,3-c]pyridine]
6.52 to 6.82 | O=S(=O)(c1ccc(Cl)cc1)N1Cc2cn[nH]c2CC1c1ccncc1 (centres unmarked) [5-(4-chlorophenylsulfonyl)-6-(pyridin-4-yl)-4,5,6,7-tetrahydro-1H-pyrazolo[4,3-c]pyridine]
> 7.30 | CC(C)C1Cc2n[nH]cc2CN1S(=O)(=O)c1ccc(Cl)cc1 (centres unmarked) [5-(4-chlorophenylsulfonyl)-6-isopropyl-4,5,6,7-tetrahydro-1H-pyrazolo[4,3-c]pyridine]
> 7.30 | O=S(=O)(c1ccc(Cl)cc1)N1Cc2c[nH]nc2CC1c1ccccc1 (centres unmarked) [5-(4-chlorophenylsulfonyl)-6-phenyl-4,5,6,7-tetrahydro-1H-pyrazolo[4,3-c]pyridine]
> 7.30 | O=S(=O)(c1ccc(Cl)s1)N1Cc2cn[nH]c2CC1c1ccccc1 (centres unmarked) [5-(5-chlorothiophen-2-ylsulfonyl)-6-phenyl-4,5,6,7-tetrahydro-1H-pyrazolo[4,3-c]pyridine]
6.52 to 6.82 | O=S(=O)(c1ccc(Cl)cc1)N1Cc2c(C(F)(F)F)n[nH]c2CC1c1ccc(Cl)cc1 (centres unmarked) [6-(4-chlorophenyl)-5-(4-chlorophenylsulfonyl)-3-(trifluoromethyl)-4,5,6,7-tetrahydro-1H-pyrazolo[4,3-c]pyridine]
6.82 to 7.30 | O=S(=O)(c1ccc(Cl)cc1)N1Cc2c[nH]nc2CC1Cc1ccccc1 (centres unmarked) [6-benzyl-5-(4-chlorophenylsulfonyl)-4,5,6,7-tetrahydro-1H-pyrazolo[4,3-c]pyridine]
6.52 to 6.82 | O=S(=O)(c1ccc(Cl)cc1)N1Cc2cccnc2CC1c1ccc(Cl)cc1 (centres unmarked) [7-(4-chlorophenyl)-6-(4-chlorophenylsulfonyl)-5,6,7,8-tetrahydro-1,6-naphthyridine]
